According to PMC4467461, “Small-molecule activation of SERCA2a SUMOylation for the treatment of heart failure” (Nature Communications, 2015):

Experiments:
[1] = biological target: T1, Recombinant human SUMO-specific E1 (Homo sapiens, UniProt Q9UBT2); experiment: SUMO E1 ATP hydrolysis, fluorogenic pyrophosphate assay; format: biochemical; details: E1 0.05 μM, Ubc9 0.25 μM, SUMO-1 12.5 μM, ATP 1 mM, 30 min at 37 °C; read-out: ATP-dependent activation of SUMO E1, EC50
T1 construct: purchased R&D Systems
Experimental: Figure 3 SUMO-specific activating enzyme, E1, is a direct target of N106. Mechanism of action of N106 on individual steps in the SUMOylation cascade in vitro. (a) Inorganic pyrophosphate resulting from ATP hydrolysis in E1-catalysed SUMO-1 activation in the presence of increasing concentration of N106 compound was assessed by fluorogenic pyrophosphate assay kit. Recombinant human SUMO-specific E1 (0.05 μM), human Ubc9 (0.25 μM), human SUMO-1 (12.5 μM) and ATP (1 mM) were incubated with increasing concentration of N106 for 30 min at 37 °C and quantified using a fluorescence microplate reader. (b) The SAE2-SUMO-1 conjugation was detected followed by western blotting with anti-SAE2 antibodies. […] (e) ATP hydrolytic activity of WT and mutant SUMO E1 are determined. (f) The E1-SUMO-1 conjugation was detected followed by western blot analysis with anti-SAE2 antibody. *The SAE2-SUMO-1 conjugated bands. […]
Biochemical activity of SUMO-specific E1 enzymes was examined by ATPase assay and in-vitro gel-shifting assays. ATP hydrolysis activity of E1 enzymes was measured by using pyrophosphate assay kit (Abcam Inc.). […] The E1-thioester formation was analysed in reaction mixtures containing 0.05 μM E1, 12.5 μM SUMO-1 and 1 mM ATP with N106 or DMSO. The E1-dependent E2-SUMO-1 thioester formation was assessed using reaction containing 0.05 μM E1, 0.25 μM E2, 12.5 μM SUMO-1 and 1 mM ATP with N106 or DMSO. […]

[2] = tested on: pressure overload-induced mouse model of HF (TAC); experiment: Invasive P–V loop haemodynamics in TAC heart failure mice; format: in vivo
Experimental: B6C3F1 mice were acquired from Jackson Laboratories. Mice underwent TAC using a supraclavicular construction model as described. TAC or sham surgery was performed in 8∼10-week-old male mice (25∼30 g). Mice were anaesthetized with intraperitoneal ketamine (95 mg kg^−1) and xylaxine (5 mg kg^−1), and ventilated with a tidal volume of 0.1 ml and a respiratory rate of 110 breaths per minute (Harvard Apparatus, MA, USA). A 2- to 3-mm longitudinal cut was made in the proximal portion of the sternum, allowing visualization of the aortic arch. The transverse aortic arch was ligated between the innominate and left common carotid arteries with an overlaying 27-gauge needle. The needle was immediately removed, leaving a discrete region of constriction. Animal sham group underwent a similar procedure without ligation. Only animals with fractional shortening < 50% were determined as being in HF and suitable for further study.
One day after echocardiography, we performed in-vivo haemodynamics. The mice were anaesthetized with an intraperitoneal injection mixture of urethane (1 mg g^−1), etomidate (10 μg g^−1) and morphine (1 μg g^−1), and were then intubated via a tracheotomy and mechanically ventilated at 7 μl g^−1 tidal volume and 120 respirations per minute. A small incision was made in the apex and a French Millar cathether connected a high-fidelity pressure transducer (Scisense, London, ON, Canada) inserted into the LV. Haemodynamic recordings were performed after 5∼10 min of stable HR. The rate of pressure rise (+dP/dt) and maximal pressure, the time constant of isovolumic relaxation and HR were recorded and analysed. To determine the relative effects of the admittance and conductance techniques to contractility change induced by N106 compound infusion, whole haemodynamic function was recorded at both baseline and after administration of N106 compound through the external jugular vein. N106 compound was solubilized in 10% DMSO (Sigma-Aldrich), 10% Tween-80 (Sigma-Aldrich) and saline for in-vivo experiments. N106 or vehicle solutions were continuously infused through the external jugular vein at a rate of 50 μl min^−1 for 2 min in each dose. Whole haemodynamic functions of increasing dose of N106 of each mouse were recorded for ∼4 h. Each dose of N106 solution was infused after back to baseline of heart function.

T1 sequence (Q9UBE0 whole entry): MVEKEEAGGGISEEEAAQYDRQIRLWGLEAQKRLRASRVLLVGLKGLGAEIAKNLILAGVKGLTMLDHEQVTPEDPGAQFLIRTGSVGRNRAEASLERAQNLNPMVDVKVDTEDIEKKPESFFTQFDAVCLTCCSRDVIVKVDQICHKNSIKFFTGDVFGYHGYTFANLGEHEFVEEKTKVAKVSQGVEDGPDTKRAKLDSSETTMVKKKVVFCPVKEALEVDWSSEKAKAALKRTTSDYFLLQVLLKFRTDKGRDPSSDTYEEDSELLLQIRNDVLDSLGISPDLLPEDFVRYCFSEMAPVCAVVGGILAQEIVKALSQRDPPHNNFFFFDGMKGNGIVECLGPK
T1 sequence (Q9UBT2 whole entry): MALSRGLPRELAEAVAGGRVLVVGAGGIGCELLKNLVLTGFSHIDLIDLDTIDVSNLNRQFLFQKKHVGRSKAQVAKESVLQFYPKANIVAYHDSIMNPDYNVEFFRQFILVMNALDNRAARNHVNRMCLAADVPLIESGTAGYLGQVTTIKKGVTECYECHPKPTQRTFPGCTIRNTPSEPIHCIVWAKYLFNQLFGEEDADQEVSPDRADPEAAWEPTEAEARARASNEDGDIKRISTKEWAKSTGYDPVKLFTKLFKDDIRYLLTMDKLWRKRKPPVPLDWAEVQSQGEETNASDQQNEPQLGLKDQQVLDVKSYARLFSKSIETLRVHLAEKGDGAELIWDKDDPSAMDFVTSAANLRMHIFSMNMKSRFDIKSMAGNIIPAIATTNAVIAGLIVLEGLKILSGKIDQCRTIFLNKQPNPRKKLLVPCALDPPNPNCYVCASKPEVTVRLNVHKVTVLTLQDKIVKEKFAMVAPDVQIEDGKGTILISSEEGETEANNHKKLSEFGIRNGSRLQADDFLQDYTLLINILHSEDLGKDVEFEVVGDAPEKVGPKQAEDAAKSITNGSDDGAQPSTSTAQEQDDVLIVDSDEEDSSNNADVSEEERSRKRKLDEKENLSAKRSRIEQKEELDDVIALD

- EC50 [1]: 2450 ± 130 nM
Structure (SMILES): COc1ccc(-c2nnc(Nc3nc4c(OC)cccc4s3)o2)cc1 [Compound N106, N-(4-methoxybenzo[d]thiazol-2-yl)-5-(4-methoxyphenyl)-1,3,4-oxadiazol-2-amine]
- +dP/dtmax ([2]; 0.1 mg kg^−1 infusion): 4803.33±91.78 mm Hg s^−1
- HR ([2]; 0.1 mg kg^−1 infusion): 417.11±4.54 bpm
- Pmax ([2]; 0.1 mg kg^−1 infusion): 115.11±1.27 mm Hg
- τ, time constant of isovolumetric relaxation ([2]; 0.1 mg kg^−1 infusion): 7.50 ± 0.15 ms
- ESPVR slope ([2]; 0.1 mg kg^−1 infusion via jugular vein): 9.04±1.20 mm Hg μl^−1
- +dP/dtmax ([2]; 1 mg kg^−1 infusion): 5448.83±147.09 mm Hg s^−1
- ESPVR slope ([2]; 1 mg kg^−1 infusion): 11.26±1.00 mm Hg μl^−1
- HR ([2]; 1 mg kg^−1 infusion): 422.33±3.79 bpm
- Pmax ([2]; 1 mg kg^−1 infusion): 123.66±5.28 mm Hg
- τ, time constant of isovolumetric relaxation ([2]; 1 mg kg^−1 infusion): 6.40 ± 0.15 ms
- +dP/dtmax ([2]; 10 mg kg^−1 infusion): 6229.41±103.23 mm Hg s^−1
- ESPVR slope ([2]; 10 mg kg^−1 infusion): 20.3±0.41 mm Hg μl^−1
- HR ([2]; 10 mg kg^−1 infusion): 455.08±5.62 bpm
- Pmax ([2]; 10 mg kg^−1 infusion): 124.50±4.26 mm Hg
- τ, time constant of isovolumetric relaxation ([2]; 10 mg kg^−1 infusion): 6.27 ± 0.13 ms
